PMC5011760, “Luteolin Attenuates Airway Mucus Overproduction via Inhibition of the GABAergic System” (Scientific Reports, 2016)

Test system: T1, GABAA receptors (GABAAR) in A549 cells
T1 construct: gene GABRA3; endogenous receptors of A549 cells, pentameric; exact subunit composition not determined (members = most abundant subunit mRNAs)
Assay: whole-cell patch clamp, A549 cells
Format: cell-based
Conditions: inhibition of currents evoked by 2.5 μM GABA; -60 mV, pH 7.4; authors call it allosteric modulator

`O=c1cc(-c2ccc(O)c(O)c2)oc2cc(O)cc(O)c12` [luteolin, 3′,4′,5,7-tetrahydroxyflavone] showed an IC50 of 8.2 µM.
